# Assay results from patent publication US5098933A, “Pharmaceutically useful Michael addition products of unsaturated aldehydes and ketones and ascorbic acid” (Theracel Corporation, priority 1990, dated 1992).
# Like-named read-outs stand apart in the source and are kept apart here.
# How the values were obtained:
# [1] = system: T- and B- lymphocyte isolated from mouse spleens; assay: Lymphocyte Blastogenesis Assay; assay type: in vivo; conditions: for RPMI: no mitogen (Table 8); for activation at 12.5 mg/kg / activation at 25 mg/kg / activation at 50 mg/kg / activation at 100 mg/kg / activation at 200 mg/kg: Mus musculus, Lymphocyte; for RPMI CONTROL: no mitogen (Table 9)
# Source text: This assay measures the ability of the compound under test to affect DNA synthesis and mitosis of T- and B- lymphocyte isolated from mouse spleens.
# Mitogens are substances which stimulate DNA synthesis and mitosis. The mitogens used in these studies were phytohemaglutinin (PHA) which is isolated from the red kidney bean and concanavalin-A (Con-A) which is isolated form the jack bean. Con-A binds to specific receptors (glycoproteins) containing mannosyl or glycosyl moieties and stimulates all murine T-cells to synthesize DNA, divide, and release lymphokines. Con-A in a soluble form allows distinction between T- and B-cells in the mouse, because although both T- and B-cells can bind 106 molecules of Con-A per cell, only T-cells are stimulated when this lectin is presented in a soluble form. PHA stimulates only subpopulations, T-2 cells, of T-cells in the mouse. Also, Con-A stimulates the production of cytokines such as Interleukin-2 (IL-2). In humans, both T- and B-cells are probably stimulated. The activation of B-cells by PHA may be indirect and mediated by the release of soluble mediators from PHA-activated T-cells.
# The lymphocyte blastogenesis test is a method to assess the ability of immunocompetent T- or B-cells to respond to a polyclonal mitogen (i.e. PHA or Con-A) or a specific antigen. It may be performed on lymphocytes obtained from mice treated with immunostimulators in vivo or the entire assay can be performed in vitro. The assay as described below uses minimal doses of polyclonal mitogens to induce blastogenesis (proliferation measure by DNA synthesis), in order to be able to assess the phenomena of amplification.
# 1. Sacrifice two mice/experimental group by cervical dislocation.
# 14. […]
# 15. Include in the experiment a control plate which contains the same cells group as above, but receive a 0.1 ml of media instead of mitogen.
# 18. After 48 hours all wells receive 0.025 mls of a 0.4 microcurie/ml solution of C-14 methyl thymidine and incubate at 37 C, 5% CO-2 for 18 hours.
# [2] = system: plaque forming cells, antibody specific to sheep red blood cells; assay: Jerne Hemolytic Plaque Assay; assay type: in vivo, mice
# Method: This assay measures the IgM or IgG isotypes of specific antibody produced by antigen used to immunize the mice. […] The direct assay detects IgM and the indirect assay detects IgG-specific antibody.
# Washed spleen cells are added to an agarose (FMC, Rockland, Me.) preparation containing sheep red blood cells (SRBC) and guinea pig complement. A drop of this mixture is transferred to a small petri dish; a cover slip is then placed over the drop to flatten it. The agarose prep is allowed to solidify. Then, the dishes are placed in a small humidified changer inside a CO-2 incubator overnight.
# Small pinpoint cleared areas (plaques) will be observed under the cover slip. The cleared areas are caused by antibody, specific to the SRBC's being released by stimulated spleen cells and in conjunction with the complement, lyse surrounding SRBC's. These plaque forming cells (PFC's) are counted, and calculations are performed to obtain PFC's per […] spleen cells.
# 1. Spleens are harvested from mice according to a standard procedure and adjusted to a final concentration of 20% in […].
# 14. Count and record the number of hemolytic plaques per plate. Average plaque counts between the duplicate sets. Multiply the average number of plaques per group by 2.5 to obtain the number of plaque forming cells per million spleen cells.
smiles,measurement,setting,value
"O=C1CCCC(C2(O)C(=O)OC3C(O)COC32O)C1 (single isomer, unassigned) [KCBL-B]",CON-A 2.25 ug/ml,[1]; 12.5 mg/kg (Table 8),865.6 counts per minute
same,PHA 14.0 ug/ml,[1]; 12.5 mg/kg (Table 8),1733.1 counts per minute
same,RPMI,[1]; 12.5 mg/kg,67.6 counts per minute
same,CON-A 2.25 ug/ml,[1]; 25 mg/kg (Table 8),1309.6 counts per minute
same,PHA 14.0 ug/ml,[1]; 25 mg/kg (Table 8),3512.1 counts per minute
same,RPMI,[1]; 25 mg/kg,84.3 counts per minute
same,CON-A 2.25 ug/ml,[1]; 50 mg/kg (Table 8),1130.6 counts per minute
same,PHA 14.0 ug/ml,[1]; 50 mg/kg (Table 8),2540.7 counts per minute
same,RPMI,[1]; 50 mg/kg,56.2 counts per minute
same,CON-A 2.25 ug/ml,[1]; 100 mg/kg (Table 8),1736.7 counts per minute
same,PHA 14.0 ug/ml,[1]; 100 mg/kg (Table 8),3515.4 counts per minute
same,RPMI,[1]; 100 mg/kg,84.9 counts per minute
same,CON-A 2.25 ug/ml,[1]; 200 mg/kg (Table 8),2008.0 counts per minute
same,PHA 14.0 ug/ml,[1]; 200 mg/kg (Table 8),3305.8 counts per minute
same,RPMI,[1]; 200 mg/kg,52.0 counts per minute
same,activation at 12.5 mg/kg,"[1]; 12.5 mg/kg (Table 8), read-out: % INCREASE (CON-A 2.25 ug/ml)",123%
same,activation at 12.5 mg/kg,"[1]; 12.5 mg/kg (Table 8), read-out: % INCREASE (PHA 14.0 ug/ml)",12.1%
same,activation at 25 mg/kg,"[1]; 25 mg/kg (Table 8), read-out: % INCREASE (CON-A 2.25 ug/ml)",237%
same,activation at 25 mg/kg,"[1]; 25 mg/kg (Table 8), read-out: % INCREASE (PHA 14.0 ug/ml)",127%
same,activation at 50 mg/kg,"[1]; 50 mg/kg (Table 8), read-out: % INCREASE (CON-A 2.25 ug/ml)",191%
same,activation at 50 mg/kg,"[1]; 50 mg/kg (Table 8), read-out: % INCREASE (PHA 14.0 ug/ml)",64.4%
same,activation at 100 mg/kg,"[1]; 100 mg/kg (Table 8), read-out: % INCREASE (CON-A 2.25 ug/ml)",347%
same,activation at 100 mg/kg,"[1]; 100 mg/kg (Table 8), read-out: % INCREASE (PHA 14.0 ug/ml)",128%
same,activation at 200 mg/kg,"[1]; 200 mg/kg (Table 8), read-out: % INCREASE (CON-A 2.25 ug/ml)",418%
same,activation at 200 mg/kg,"[1]; 200 mg/kg (Table 8), read-out: % INCREASE (PHA 14.0 ug/ml)",114%
same,% INCREASE,[2]; 25 mg/kg (Table 10),39%
same,PFC,[2]; 25 mg/kg (Table 10),66.25 PFC/1 MILLION CELLS
same,% INCREASE,[2]; 50 mg/kg (Table 10),218%
same,PFC,[2]; 50 mg/kg (Table 10),151.25 PFC/1 MILLION CELLS
same,% INCREASE,[2]; 100 mg/kg (Table 10),232%
same,PFC,[2]; 100 mg/kg (Table 10),157.5 PFC/1 MILLION CELLS
same,% INCREASE,[2]; 200 mg/kg (Table 10),171%
same,PFC,[2]; 200 mg/kg (Table 10),128.75 PFC/1 MILLION CELLS
"CC(=O)CCC1(O)C(=O)OC2C(O)COC21O (stereo not drawn) [KBBL, 2-(3-Ketobutyl)-2-Hydroxy-3-Keto-4-Dihydroxyethyl Butyrolactone <3, 6> Cyclohemiketal]",CON-A 1.5 ug,[1]; 25 mg/kg (Table 9),3572
same,CON-A 2.25 ug,[1]; 25 mg/kg (Table 9),5398
same,PHA 10.5 ug,[1]; 25 mg/kg (Table 9),7935
same,PHA 14 ug,[1]; 25 mg/kg (Table 9),10994
same,RPMI CONTROL,[1]; 25 mg/kg,255
same,CON-A 1.5 ug,[1]; 50 mg/kg (Table 9),2539
same,CON-A 2.25 ug,[1]; 50 mg/kg (Table 9),5802
same,PHA 10.5 ug,[1]; 50 mg/kg (Table 9),4579
same,PHA 14 ug,[1]; 50 mg/kg (Table 9),7295
same,RPMI CONTROL,[1]; 50 mg/kg,92
same,CON-A 1.5 ug,[1]; 100 mg/kg (Table 9),1051
same,CON-A 2.25 ug,[1]; 100 mg/kg (Table 9),3056
same,PHA 10.5 ug,[1]; 100 mg/kg (Table 9),3540
same,PHA 14 ug,[1]; 100 mg/kg (Table 9),4878
same,RPMI CONTROL,[1]; 100 mg/kg,33
same,CON-A 1.5 ug,[1]; 200 mg/kg (Table 9),2571
same,CON-A 2.25 ug,[1]; 200 mg/kg (Table 9),6891
same,PHA 14 ug,[1]; 200 mg/kg (Table 9),6963
same,RPMI CONTROL,[1]; 200 mg/kg,55
same,activation at 25 mg/kg,"[1]; 25 mg/kg (Table 9), read-out: % INCR. (CON-A 1.5 ug)",663%
same,activation at 25 mg/kg,"[1]; 25 mg/kg (Table 9), read-out: % INCR. (CON-A 2.25 ug)",260%
same,activation at 25 mg/kg,"[1]; 25 mg/kg (Table 9), read-out: % INCR. (PHA 10.5 ug)",356%
same,activation at 25 mg/kg,"[1]; 25 mg/kg (Table 9), read-out: % INCR. (PHA 14 ug)",373%
same,activation at 50 mg/kg,"[1]; 50 mg/kg (Table 9), read-out: % INCR. (CON-A 1.5 ug)",443%
same,activation at 50 mg/kg,"[1]; 50 mg/kg (Table 9), read-out: % INCR. (CON-A 2.25 ug)",285%
same,activation at 50 mg/kg,"[1]; 50 mg/kg (Table 9), read-out: % INCR. (PHA 10.5 ug)",163%
same,activation at 50 mg/kg,"[1]; 50 mg/kg (Table 9), read-out: % INCR. (PHA 14 ug)",214%
same,activation at 100 mg/kg,"[1]; 100 mg/kg (Table 9), read-out: % INCR. (CON-A 1.5 ug)",54%
same,activation at 100 mg/kg,"[1]; 100 mg/kg (Table 9), read-out: % INCR. (CON-A 2.25 ug)",103%
same,activation at 100 mg/kg,"[1]; 100 mg/kg (Table 9), read-out: % INCR. (PHA 10.5 ug)",103%
same,activation at 100 mg/kg,"[1]; 100 mg/kg (Table 9), read-out: % INCR. (PHA 14 ug)",110%
same,activation at 200 mg/kg,"[1]; 200 mg/kg (Table 9), read-out: % INCR. (CON-A 1.5 ug)",449%
same,activation at 200 mg/kg,"[1]; 200 mg/kg (Table 9), read-out: % INCR. (CON-A 2.25 ug)",357%
same,activation at 200 mg/kg,"[1]; 200 mg/kg (Table 9), read-out: % INCR. (PHA 10.5 ug)",171%
same,activation at 200 mg/kg,"[1]; 200 mg/kg (Table 9), read-out: % INCR. (PHA 14 ug)",200%
same,stimulation at all doses,"[1]; all doses of PHA and Con-A, 25-200 mg/kg",stimulatory at all the doses of PHA and Con-A tested
same,% INCREASE,[2]; 50 mg/kg (Table 11),70.2%
same,PFC,[2]; 50 mg/kg (Table 11),36.0 PFC/1 MILLION CELLS
same,% INCREASE,[2]; 100 mg/kg (Table 11),104.3%
same,PFC,[2]; 100 mg/kg (Table 11),48.0 PFC/1 MILLION CELLS
same,% INCREASE,[2]; 200 mg/kg (Table 11),106.4%
same,PFC,[2]; 200 mg/kg (Table 11),48.5 PFC/1 MILLION CELLS
